“Also recorded” adds a separate entry of the source.
Experiments:
[1] = tested on: HFL-1 cells; test: Long term exposure of normal human fibroblasts, cell count; format: cell-based; settings: 2.5 or 5.0 μM for 48 or 72 hours, counted 96 hours after the incubation period
Procedure: Cells were exposed to either 2.5 or 5.0 μM of the styryl sulfone […] and counted.
HFL-1 cells were plated at a cell density of 1.0×10^5 per well 24 hours prior to drug addition. Cells were exposed to either 2.5 or 5.0 μM (E)-4-fluorostyryl-4-chlorobenzylsulfone for 48 or 72 hours. Cells were counted 96 hours after the incubation period.

[2] = tested on: HFL-1 cells; test: Protection of normal human fibroblasts from paclitaxel cytotoxicity; format: cell-based; settings: HFL-1 cells pretreated with 2.0 μM for 8 hours, then paclitaxel (250 μM); viable cells 96 hours after paclitaxel
Procedure: FIG. 3 is a graph of the effect of paclitaxel on HFL-1 cells which were either pre-treated with (E)-4-fluorostyryl-4-chlorobenzylsulfone and then exposed to paclitaxel, or treated simultaneously with both agents. Cells were enumerated 96 hours after exposure to paclitaxel.
HFL-1 cells were plated at a cell density of 1.0×10^5 per well 24 hours prior to drug addition. Cells were pretreated with (E)-4-fluorostyryl-4-chlorobenzylsulfone (2.0 μM) for 8 hours and then exposed to paclitaxel (250 μM). Other cells were treated with paclitaxel alone, or both agents simultaneously. Cells were enumerated by Trypan blue exclusion using a hematocytometer 96 hours after exposure to paclitaxel. The ordinate in FIG. 3 represents the number of viable cells following treatment with (E)-4-fluorostyryl-4-chlorobenzylsulfone and paclitaxel, divided by the number of viable cells remaining after treatment with paclitaxel alone.

[3] = tested on: HFL-1 cells; test: Protection of normal human fibroblasts from anticancer agent cytotoxicity (Protection Ratio); format: cell-based; settings: 2.0 μM sulfone 24 hour preincubation, then cisplatin 5.0 μM; viable cells at 96 hours
Procedure: HFL-1 cells were plated at a cell density of 1.0×10^5 in 1 ml of medium. Twenty-four hours following plating, 2.0 μM of (E)-4-fluorostyryl-4-chlorobenzylsulfone was added to the medium. Following a 24 hour preincubation with the styryl sulfone, the various cytotoxic agents listed in Table 6 were added to the cells, at the concentrations given in Table 6. the number of viable cells was determined by Trypan blue exclusion using a hematocytometer 96 hours after exposure to cytotoxic agent. The “Protection Ratio” is the number of viable cells following treatment with (E)-4-fluorostyryl-4-chlorobenzylsulfone and cytotoxic agent, divided by the number of viable cells remaining after treatment with cytotoxic agent alone. A protection ratio of 2 or more is considered highly significant, while is protection ratio of 1.5-2 is considered less significant.

[4] = tested on: HFL-1 cells; test: Protection of normal human fibroblasts from vincristine cytotoxicity; format: cell-based; settings: 2.0 μM sulfone 24 hours before vincristine, viability 96 hours after vincristine
Procedure: Normal HFL cells were treated with 0 to 0.250 nM vincristine and 2.0 μM (E)-4-fluorostyryl-4-chlorobenzylsulfone as indicated. Cell viability was assessed 96 hours after vincristine was added. “V”, vincristine alone; “A→V”, styryl sulfone followed by vincristine 24 hours later; “A+V”, simultaneous styryl sulfone and vincristine treatment; “V→A”, vincristine followed by styryl sulfone 24 hours later.
HFL-1 cells were treated with […] vincristine and, optionally, 2.0 μM (E)-4-fluorostyryl-4-chlorobenzylsulfone either 24 hours before or after vincristine treatment, or simultaneously with vincristine treatment. Cell viability was assessed 96 hours after the addition of vincristine. The results are shown in FIG. 4: “V”, vincristine alone; “A→V”, styryl sulfone followed by vincristine 24 hours later; “A+V”, simultaneous styryl sulfone and vincristine treatment; “V→A”, vincristine followed by styryl sulfone 24 hours later.

[5] = tested on: ICR female mice; test: Protection of mice from paclitaxel toxicity (mortality); format: in vivo; settings: 50 mg/Kg i.p. pre-treatment before 150 mg/kg paclitaxel i.p.; mortality at 48 and 144 hours
Procedure: The styryl sulfone was given 24 hours before paclitaxel, 4 hours before paclitaxel, or simultaneously with paclitaxel. Control animals received paclitaxel alone or styryl sulfone alone. Mortality was assessed 48 after paclitaxel injection.
FIG. 6 is similar to FIG. 5, except that mortality was assessed 144 hours post paclitaxel administration.
ICR female mice age 10-12 weeks (Taconic) were divided into the following treatment groups and received intraperitoneal injections of 50 mg/Kg (E)-4-fluorostyryl-4-chlorobenzylsulfone dissolved in DMSO and/or 150 mg/kg paclitaxel (Taxol, Sigma Chemical Co.) dissolved in DMSO. The styryl sulfone was given 24 hours before paclitaxel, 4 hours before paclitaxel, or simultaneously with paclitaxel. Control animals received paclitaxel alone or styryl sulfone alone. Mortality was assessed 48 and 144 hours after paclitaxel injection. The results are shown in FIG. 5 (48 hours post paclitaxel administration) and FIG. 6 (144 hours post paclitaxel administration). Paclitaxel toxicity in mice is abrogated by pre-treatment with (E)-4-fluorostyryl-4-chlorobenzylsulfone.

[6] = tested on: Normal human HFL-1 cells; test: Cytoprotection assay against paclitaxel; format: cell-based; set-up: key: +: A compound was deemed to be active if the number of viable cells following the combination treatment was higher than the number of cells after treatment with paclitaxel alone; settings: 2.0 or 10 μM sulfone, paclitaxel 250 nM at time zero or 24 hours later, viable cells after 96 hours of paclitaxel
Procedure: The cytoprotective activity of the same Istyryl benzylsulfones was determined as follows. Normal human HFL-1 cells were plated at a cell density of 1.0×10^5 cells per well in six culture plates. Styryl benzylsulfone was added 24 hours later at a final concentration of either 2.0 or 10 μM. The time of styryl sulfone addition was designated as time zero. Paclitaxel (250 nM) was added at either time zero, or 24 hours after time zero. The total number of viable cells was determined, as described above, after 96 hours of paclitaxel treatment. A compound was deemed to be active if the number of viable cells following the combination treatment was higher than the number of cells after treatment with paclitaxel alone.

Structure (SMILES)	Cytoprotection [6]	other results
O=S(=O)(/C=C/c1ccc(F)cc1)Cc1ccc(Cl)cc1 [Example 7, (E)-4-fluorostyryl-4-chlorobenzyl sulfone]	+	replication rate (cell count) [1]: transiently reduced replication rates; protection from the toxic effects of paclitaxel [2]: conferred protection from the toxic effects of paclitaxel; Protection Ratio [3]: 1.3; protection from the toxic effects of vincristine [4]: conferred protection from the toxic effects of vincristine; also recorded: Vincristine toxicity is abrogated; paclitaxel toxicity in mice (mortality) [5]: abrogated
O=S(=O)(/C=C/c1ccc(Cl)cc1)Cc1ccc(Cl)cc1 [Example 8, (E)-4-chlorostyryl-4-chlorobenzyl sulfone]	+	
O=S(=O)(/C=C/c1ccc(F)cc1Cl)Cc1ccc(Cl)cc1 [Example 9, (E)-2-chloro-4-fluorostyryl-4-chlorobenzyl sulfone]	+	
O=C(O)c1ccc(/C=C/S(=O)(=O)Cc2ccc(Cl)cc2)cc1 [Example 10, (E)-4-carboxystyryl-4-chlorobenzyl sulfone]	+	
O=S(=O)(/C=C/c1ccc(F)cc1)Cc1ccc(Cl)cc1Cl [Example 11, (E)-4-fluorostyryl-2,4-dichlorobenzyl sulfone]	+	

Source: patent publication US6656973B2, “(E)-4-carboxystyrl-4-chlorobenzyl sulfone and pharmaceutical compositions thereof” (Temple University - Of the Commonwealth System of Higher …, priority 1999, dated 2003)
